Assay results taken from PubChem BioAssay AID330 (DTP/NCI, 2004).
“And” between values parts separate entries of the source, which are not always exact repeats. Equal entries are not always repeated. Toxic doses and inconclusive results are not listed.

Test system: P388 leukemia ip, CD2F1 mice, survival T/C
Assay: NCI In Vivo Anticancer Drug Screen. Data for tumor model P388 Leukemia (intraperitoneal) in CD2F1 (CDF1) mice
Settings: endpoint: median survival time, higher = longer survival
Procedure, shortened: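 Mice carrying the transplanted tumor received test compound or vehicle. Survival was recorded in each group, and the value is the treated-group measurement divided by that of the vehicle-treated control group.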

[1] = dose: 50.0 mg/kg/injection, schedule: Q01DX009 (ip), vehicle: saline
[2] = dose: 100.0 mg/kg/injection, schedule: Q01DX009 (ip), vehicle: saline
[3] = dose: 50.0 mg/kg/injection, schedule: Q01DX005 (ip), vehicle: saline with Tween-80
[4] = dose: 60.0 mg/kg/injection, schedule: Q01DX005 (ip), vehicle: saline

C/C(=C\c1cc2c(cc1Cl)OCO2)[N+](=O)[O-]
T/C (dose: 100.0 mg/kg/injection, schedule: Q04DX002 (ip), vehicle: Klucel (hydroxypropylcellulose) (HPC)): 104 % of control | T/C (dose: 200.0 mg/kg/injection, schedule: Q04DX002 (ip), vehicle: Klucel (hydroxypropylcellulose) (HPC)): 102 % of control | T/C (dose: 400.0 mg/kg/injection, schedule: Q04DX002 (ip), vehicle: Klucel (hydroxypropylcellulose) (HPC)): 118 % of control

O=C(OC1C2CCC2C2CC21)c1ccc([N+](=O)[O-])cc1[N+](=O)[O-] (stereo unspecified)
T/C [1]: 105 % of control | T/C [2]: 99 % of control and 92 % of control | T/C (dose: 200.0 mg/kg/injection, schedule: Q01DX009 (ip), vehicle: saline): 92 % of control and 93 % of control

Cc1ccc(S(=O)(=O)NC(=O)/N=C2\NC(=O)CS2)cc1
T/C [3]: 100 % of control | T/C (dose: 100.0 mg/kg/injection, schedule: Q01DX005 (ip), vehicle: saline with Tween-80): 103 % of control | T/C (dose: 200.0 mg/kg/injection, schedule: Q01DX005 (ip), vehicle: saline with Tween-80): 91 % of control

COc1nc2c(nc(N)n2C2OC(COC(C)=O)C(OC(C)=O)C(OC(C)=O)C2OC(C)=O)c(=O)n1C (stereo unspecified)
T/C [4]: 92 % of control | T/C (dose: 240.0 mg/kg/injection, schedule: Q01DX005 (ip), vehicle: saline): 92 % of control

CCC(=O)[O][Bi]([c]1ccccc1)[c]1ccccc1
T/C (dose: 25.0 mg/kg/injection, schedule: Q01DX005 (ip), vehicle: Klucel (hydroxypropylcellulose) (HPC)): 99 % of control and 116 % of control | T/C (dose: 50.0 mg/kg/injection, schedule: Q01DX005 (ip), vehicle: Klucel (hydroxypropylcellulose) (HPC)): 111 % of control and 114 % of control and 115 % of control | T/C (dose: 100.0 mg/kg/injection, schedule: Q01DX005 (ip), vehicle: Klucel (hydroxypropylcellulose) (HPC)): 106 % of control and 124 % of control | T/C (dose: 200.0 mg/kg/injection, schedule: Q01DX005 (ip), vehicle: Klucel (hydroxypropylcellulose) (HPC)): 168 % of control

COc1cc2c(cc1C(CC(C)=O)c1cc(OC)c(OC)c(OC)c1)OCO2 (stereo unspecified)
T/C (dose: 60.0 mg/kg/injection, schedule: Q01DX005 (ip), vehicle: saline with Tween-80): 100 % of control | T/C (dose: 120.0 mg/kg/injection, schedule: Q01DX005 (ip), vehicle: saline with Tween-80): 100 % of control | T/C (dose: 240.0 mg/kg/injection, schedule: Q01DX005 (ip), vehicle: saline with Tween-80): 103 % of control

COC(=O)C1CC(O)CC(C(=O)OC)O1 (stereo unspecified)
T/C [4]: 96 % of control | T/C (dose: 120.0 mg/kg/injection, schedule: Q01DX005 (ip), vehicle: saline): 90 % of control

CC(CN(C)C)C(=O)c1ccccc1 (stereo unspecified)
T/C (dose: 6.25 mg/kg/injection, schedule: Q01DX009 (ip), vehicle: saline with Tween-80): 113 % of control | T/C (dose: 12.5 mg/kg/injection, schedule: Q01DX009 (ip), vehicle: saline with Tween-80): 112 % of control | T/C (dose: 25.0 mg/kg/injection, schedule: Q01DX009 (ip), vehicle: saline with Tween-80): 120 % of control | T/C (dose: 50.0 mg/kg/injection, schedule: Q01DX009 (ip), vehicle: saline with Tween-80): 114 % of control | T/C [1]: 99 % of control | T/C (dose: 100.0 mg/kg/injection, schedule: Q01DX009 (ip), vehicle: saline with Tween-80): 117 % of control | T/C [2]: 99 % of control

CN(C)C(=O)C1CCC1
T/C (dose: 100.0 mg/kg/injection, schedule: Q04DX003 (ip), vehicle: saline with Tween-80): 95 % of control | T/C (dose: 200.0 mg/kg/injection, schedule: Q04DX003 (ip), vehicle: saline with Tween-80): 100 % of control | T/C (dose: 400.0 mg/kg/injection, schedule: Q04DX003 (ip), vehicle: saline with Tween-80): 100 % of control

Nc1ncc(Cl)c2ccccc12
T/C (dose: 6.25 mg/kg/injection, schedule: Q01DX005 (ip), vehicle: saline with Tween-80): 99 % of control | T/C (dose: 12.5 mg/kg/injection, schedule: Q01DX005 (ip), vehicle: saline with Tween-80): 97 % of control | T/C (dose: 25.0 mg/kg/injection, schedule: Q01DX005 (ip), vehicle: saline with Tween-80): 89 % of control | T/C [3]: 101 % of control

CC(=O)Oc1n[nH]c(=O)n1-c1ccccc1
T/C (dose: 50.0 mg/kg/injection, schedule: Q01DX005 (ip), vehicle: Klucel + Tween-80): 107 % of control | T/C (dose: 100.0 mg/kg/injection, schedule: Q01DX005 (ip), vehicle: Klucel + Tween-80): 107 % of control | T/C (dose: 200.0 mg/kg/injection, schedule: Q01DX005 (ip), vehicle: Klucel + Tween-80): 98 % of control

COc1cccc2c1C(=O)c1c(O)c3c(c(O)c1C2=O)C[C@@](O)(C(C)=O)C[C@@H]3OC1CC(N(CCO)Cc2ccccc2)C(O)C(C)O1 (stereo partly specified)
T/C (dose: 4.0 mg/kg/injection, schedule: Q04DX003 (ip), vehicle: water): 105 % of control | T/C (dose: 8.0 mg/kg/injection, schedule: Q04DX003 (ip), vehicle: water): 113 % of control | T/C (dose: 12.5 mg/kg/injection, schedule: Q04DX003 (ip), vehicle: water): 114 % of control | T/C (dose: 32.0 mg/kg/injection, schedule: Q04DX003 (ip), vehicle: water): 155 % of control | T/C (dose: 50.0 mg/kg/injection, schedule: Q04DX003 (ip), vehicle: water): 172 % of control | T/C (dose: 64.0 mg/kg/injection, schedule: Q04DX003 (ip), vehicle: water): 179 % of control | T/C (dose: 100.0 mg/kg/injection, schedule: Q04DX003 (ip), vehicle: water): 223 % of control | T/C (dose: 128.0 mg/kg/injection, schedule: Q04DX003 (ip), vehicle: water): 240 % of control | T/C (dose: 200.0 mg/kg/injection, schedule: Q04DX003 (ip), vehicle: water): 124 % of control
